Entries after “also recorded” stand apart in the source; their conditions may differ.

One experiment concerns COX-2. The experiment can be described thus: COX-2 protein expression in LPS-stimulated alveolar macrophages (immunoblot). In kind it is cell-based, Rat (Sprague-Dawley). The conditions noted are these: 16h, FIG. 3A. Here is the method:
(§1) Rat (Sprague-Dawley) alveolar macrophages were collected by broncho-alveolar lavage as described by Lee et al., J. Biol. Chem., vol. 267, pp. 25934-25938 (1992). The murine macrophage cell line RAW 264.7 (ATCC no. TIB-71) was cultured in Dubecco's modified Eagle's medium (DMEM) containing 10% heat-inactivated fetal bovine serum (FBS, Intergen). For the cyclooxygenase activity assay, cells were seeded in 24 well plates, and after near-confluency, cells were treated with aspirin (250 μM) for 2.5h to inactivate endogenous cyclooxygenase. […] COX activity was determined by measuring prostaglandin E2 concentrations in cells incubated with arachidonic acid (30 μM) for 10 minutes as described in Lee et al. (1992).
(§2) The protein levels of COX-2 and GAPDH were assessed by Western blot analysis using polyclonal antibodies as described in Lee et al. (1992). Polyclonal antibodies for IL-1α and JNK-1 were purchased from Genzyme and Santa Cruz Biotech, respectively.
In FIG. 3A, alveolar macrophages were incubated with LPS and various concentrations of parthenolide for 16h. Solubilized proteins were analyzed by COX-2, IL-1α or GAPDH immunoblotting. FIG. 3A is a representative immunoblot of more than five different analyses. Data are shown for various concentrations of both parthenolide (PTN) and herbimycin A (HER). […]
(In general: In western blotting, separated proteins are transferred to a membrane and probed.)

The next experiment concerns COX-2 mRNA. The experiment can be described thus: Steady state levels of COX-2 mRNA in LPS-stimulated alveolar macrophages (RNase protection assay). Format: cell-based, Rat (Sprague-Dawley). Conditions: 2h, FIG. 3B. Here is the method:
as §1
(§3) Total cellular RNA was isolated by TRIzoL reagent (Gibco, BRL). The RNase protection assay was performed as described in Chanmugan et al. (1995).
(§4) In FIG. 3B, alveolar macrophages were incubated with LPS in the presence of various concentrations of parthenolide for 2h. Steady state levels of mRNA were determined by RNase protection assay. In FIG. 4, alveolar macrophages were incubated with LPS in presence of 1 μg/ml of parthenolide for specified time periods. The concentrations of mRNA were determined by RNase protection assay.

The test system of a further experiment is TNFα mRNA. As to the kind of experiment: Steady state levels of TNFα mRNA in LPS-stimulated alveolar macrophages (RNase protection assay). In kind it is cell-based, Rat (Sprague-Dawley). The conditions noted are these: FIG. 3B (2h) and FIG. 4 (parthenolide 1 μg/ml, time course). Here is the method: as §1, §3, §4
For a further experiment, the system named is IL-1β mRNA. The experiment can be described thus: Steady state levels of IL-1β mRNA in LPS-stimulated alveolar macrophages (RNase protection assay). In kind it is cell-based, Rat (Sprague-Dawley). The conditions noted are these: FIG. 3B (2h) and FIG. 4 (parthenolide 1 μg/ml, time course). Here is the method: as §1, §3, §4
Experiment [1] relates to tyrosine phosphorylation of various proteins. As to the kind of experiment: LPS-stimulated tyrosine phosphorylation of various proteins in RAW 264.7 cells (antiphosphotyrosine immunoblot). In kind it is cell-based, murine. Conditions: 3h pretreatment, LPS 1 μg/ml 30 min; FIG. 5A. Here is the method:
as §1
(§5) This detection technique was carried out essentially as described in Chanmugan et al. (1995) using 4G10 monoclonal antiphosphotyrosine antibody (UBI) and the ECL detection system (Amersham).
(§6) Parthenolide suppressed LPS-stimulated tyrosine phosphorylation of various proteins in RAW 264.7 cells as assessed by antiphosphotyrosine immunoblot, depicted in FIG. 5A. This inhibition was correlated with the suppressed expression of COX-2 and IL-1α. […] Therefore, the extent of tyrosine phosphorylation of JNK-1 was assessed by the electrophoretic mobility shift of phosphorylated JNK-1 as shown in FIG. 5B. […]

Another experiment has as its system ERK-1. As to the kind of experiment: Tyrosine phosphorylation of ERK-1 in RAW 264.7 cells (antiphosphotyrosine immunoblot). Format: cell-based, murine. Conditions: 3h pretreatment, LPS 1 μg/ml 30 min; FIG. 5A. The method, then: as §1, §5, §6
Experiment [2] concerns ERK-2. As to the kind of experiment: Tyrosine phosphorylation of ERK-2 in RAW 264.7 cells (antiphosphotyrosine immunoblot). Format: cell-based, murine. The conditions noted are these: 3h pretreatment, LPS 1 μg/ml 30 min; FIG. 5A. Here is the method:
as §1, §5, §6

In experiment [3] the test system is c-Jun N-terminal kinase-1 (JNK-1). As to the kind of experiment: Tyrosine phosphorylation of JNK-1 in RAW 264.7 cells (electrophoretic mobility shift immunoblot). Format: cell-based, murine. The conditions noted are these: 3h pretreatment, LPS 1 μg/ml 30 min; FIG. 5B. The method, then:
as §1, §2, §6

For experiment [4], the system named is ERK-2. The experiment can be described thus: Kinase activity of ERK-2 in RAW 264.7 cells (in-gel kinase assay, MBP substrate). Format: cell-based, murine. Conditions: 3h pretreatment, LPS 1 μg/ml 30 min; FIG. 5. The method, then:
as §1
This assay was performed according to the method described by Kameshita et al., Anal. Biochem., vol. 183, pp. 139-143 (1989) using myelin basic protein (MBP) as a substrate.
as §6

The test system of experiment [5] is Nuclear Factor-kB (NF-kB). The experiment can be described thus: NF-kB activated by LPS in RAW 264.7 cells (degradation of IKBα). In kind it is cell-based, murine. The text has this:
Parthenolide inhibits Nuclear Factor--kB (NF-kB) transcription factor that has been activated by LPS in the murine macrophage cell line (RAW 264.7) as assessed by the degradation of the protein, IKBα. Activated NF-kB is known to induce the expression of many early response genes including inducible nitric oxide synthetase, cyclooxygenase, and chemokines that are implicated in acute inflammatory responses.

Regarding `C=C1C(=O)O[C@H]2[C@H]1CC/C(C)=C/CC[C@@]1(C)O[C@@H]21` [Compound 1, Parthenolide], the “expression of COX-2 protein” value with COX-2 is listed as “dose-dependent inhibition”. Further, the “steady state levels of COX-2 mRNA” value with COX-2 mRNA is listed as “dose-dependent inhibition; also recorded: suppression”. The “steady state levels of mRNA for TNFα” value with TNFα mRNA is “inhibited”. In the experiment with IL-1β mRNA, the “steady state levels of mRNA for IL-1β” value is “inhibited”. Further, the “LPS-stimulated tyrosine phosphorylation of various proteins” value in [1] is reported as “suppressed”. Besides, in the experiment with ERK-1, the “tyrosine phosphorylation of ERK-1” value is on record as “inhibited by parthenolide in a dose-dependent manner”. The “tyrosine phosphorylation of ERK-2” value with ERK-2 [2] is recorded as “inhibited by parthenolide in a dose-dependent manner”. Moreover, in experiment [3], the “tyrosine phosphorylation of JNK-1” value is given as “inhibited”. Moreover, in the experiment with ERK-2 [4], the “kinase activity of ERK-2” value was “dose-dependent inhibition”. Moreover, the “inhibition of NF-kB transcription factor activated by LPS” value in experiment [5] was “inhibits”.

These data come from patent US5905089A, “Use of sesquiterpene lactones for treatment of severe inflammatory disorders” (Board of Supervisors of Louisiana State University and …, priority 1998, dated 1999).
